We go through 14 molecules from PubChem BioAssay AID270 (DTP/NCI, 2004).

The test system of the assay is BDF1 mice, s.c. Lewis lung carcinoma, T/C %. In words: NCI In Vivo Anticancer Drug Screen. Data for tumor model Lewis Lung Carcinoma (subcutaneous) in B6D2F1 (BDF1) mice. The essentials:
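Antitumor effect in vivo is scored from survival or tumor burden, reported as treated relative to vehicle controls.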

The mark [1] stands for this setting: endpoint: median survival time, dose: 12.5 mg/kg/injection, schedule: Q01DX009 (ip), vehicle: Klucel (hydroxypropylcellulose) (HPC), higher = longer survival.
Setting [2] is: endpoint: median survival time, dose: 25.0 mg/kg/injection, schedule: Q01DX009 (ip), vehicle: Klucel (hydroxypropylcellulose) (HPC), higher = longer survival.

“And” between values parts separate entries of the source, which are not always exact repeats. Equal entries are not always repeated. Results filed as inconclusive are left out.

In the case of `CCCCCCC(=O)O[C@H]1CC[C@H]2[C@@H]3CCC4=CC(=O)CC[C@]4(C)[C@H]3CC[C@]12C`, the T/C runs as follows: (endpoint: mean tumor weight (est.), dose: 10.0 mg/kg/injection, schedule: Q01DX009 (ip), vehicle: water, higher = larger tumour) 73 % of control; (endpoint: mean tumor weight (est.), dose: 20.0 mg/kg/injection, schedule: Q01DX009 (ip), vehicle: water, higher = larger tumour) 111 % of control; (endpoint: mean tumor weight (est.), dose: 40.0 mg/kg/injection, schedule: Q01DX009 (ip), vehicle: water, higher = larger tumour) 52 % of control; (endpoint: mean tumor weight (est.), dose: 80.0 mg/kg/injection, schedule: Q01DX009 (ip), vehicle: water, higher = larger tumour) 93 % of control; (endpoint: median survival time, dose: 10.0 mg/kg/injection, schedule: Q01DX009 (ip), vehicle: water, higher = longer survival) 115 % of control; (endpoint: median survival time, dose: 80.0 mg/kg/injection, schedule: Q01DX009 (ip), vehicle: water, higher = longer survival) 101 % of control.
For `Cc1nn(-c2ccccc2)c(N)c1C#N`, the T/C was 94 % of control (endpoint: median survival time, dose: 12.5 mg/kg/injection, schedule: Q01DX009 (ip), vehicle: other, higher = longer survival); 98 % of control and 100 % of control (endpoint: median survival time, dose: 25.0 mg/kg/injection, schedule: Q01DX009 (ip), vehicle: other, higher = longer survival); 97 % of control (endpoint: median survival time, dose: 50.0 mg/kg/injection, schedule: Q01DX009 (ip), vehicle: other, higher = longer survival); 100 % of control (endpoint: median survival time, dose: 100.0 mg/kg/injection, schedule: Q01DX009 (ip), vehicle: other, higher = longer survival); 100 % of control (endpoint: median survival time, dose: 200.0 mg/kg/injection, schedule: Q01DX009 (ip), vehicle: other, higher = longer survival); 98 % of control (endpoint: median survival time, dose: 400.0 mg/kg/injection, schedule: Q01DX009 (ip), vehicle: other, higher = longer survival).
Regarding `O=CC1CO1` (centres undefined), the T/C (endpoint: mean tumor weight, dose: 29.0 mg/kg/injection, schedule: Q01DX011 (ip), vehicle: saline, higher = larger tumour) is 89 % of control; the T/C (endpoint: mean tumor weight, dose: 44.0 mg/kg/injection, schedule: Q01DX011 (ip), vehicle: saline, higher = larger tumour) was 44 % of control; the T/C (endpoint: mean tumor weight, dose: 66.0 mg/kg/injection, schedule: Q01DX011 (ip), vehicle: saline, higher = larger tumour) was 75 % of control.
As for `CC1(C)N=C(N)N=C(N)N1c1cccc(Br)c1`, the T/C (endpoint: mean tumor weight, dose: 50.0 mg/kg/injection, schedule: Q01DX011 (ip), vehicle: other, higher = larger tumour) is 16 % of control.
As for `O=c1cc[nH]c(=O)o1`, the T/C by setting is: (endpoint: median survival time, dose: 1.5 mg/kg/injection, schedule: Q01DX009 (ip), vehicle: water, higher = longer survival) 102 % of control; (endpoint: median survival time, dose: 3.0 mg/kg/injection, schedule: Q01DX009 (ip), vehicle: water, higher = longer survival) 95 % of control; (endpoint: median survival time, dose: 3.12 mg/kg/injection, schedule: Q01DX008 (ip), vehicle: water, higher = longer survival) 93 % of control; (endpoint: median survival time, dose: 3.12 mg/kg/injection, schedule: Q01DX009 (ip), vehicle: water, higher = longer survival) 114 % of control; (endpoint: median survival time, dose: 6.0 mg/kg/injection, schedule: Q01DX009 (ip), vehicle: water, higher = longer survival) 94 % of control; (endpoint: median survival time, dose: 6.25 mg/kg/injection, schedule: Q01DX008 (ip), vehicle: water, higher = longer survival) 118 % of control. For the same molecule, the T/C runs as follows: (endpoint: median survival time, dose: 6.25 mg/kg/injection, schedule: Q01DX009 (ip), vehicle: water, higher = longer survival) 108 % of control and 243 % of control; (endpoint: median survival time, dose: 12.0 mg/kg/injection, schedule: Q01DX009 (ip), vehicle: water, higher = longer survival) 106 % of control and 108 % of control; (endpoint: median survival time, dose: 12.5 mg/kg/injection, schedule: Q01DX008 (ip), vehicle: water, higher = longer survival) 114 % of control; (endpoint: median survival time, dose: 12.5 mg/kg/injection, schedule: Q01DX009 (ip), vehicle: water, higher = longer survival) 103 % of control and 243 % of control; (endpoint: median survival time, dose: 24.0 mg/kg/injection, schedule: Q01DX009 (ip), vehicle: water, higher = longer survival) 98 % of control and 116 % of control; (endpoint: median survival time, dose: 25.0 mg/kg/injection, schedule: Q01DX008 (ip), vehicle: water, higher = longer survival) 112 % of control. The T/C (endpoint: median survival time, dose: 25.0 mg/kg/injection, schedule: Q01DX009 (ip), vehicle: water, higher = longer survival) is 107 % of control.
With `CC(C)C1(C(=O)NNC(=O)CCCc2ccc(N(CCCl)CCCl)cc2)OC2(O)CCCCCN2C1=O` (centres undefined), the T/C was 111 % of control (endpoint: median survival time, dose: 3.12 mg/kg/injection, schedule: Q04DX003 (ip), vehicle: DMSO, higher = longer survival); 116 % of control (endpoint: median survival time, dose: 6.25 mg/kg/injection, schedule: Q04DX003 (ip), vehicle: DMSO, higher = longer survival); 102 % of control (endpoint: median survival time, dose: 12.5 mg/kg/injection, schedule: Q04DX003 (ip), vehicle: DMSO, higher = longer survival).
Turning to `Cc1nc(N)nc(N)c1-c1ccc(Cl)c(Cl)c1`, the T/C is 80 % of control (endpoint: mean tumor weight, dose: 0.9 mg/kg/injection, schedule: Q01DX011 (ip), vehicle: carboxymethylcellulose (CMC), higher = larger tumour); 89 % of control (endpoint: mean tumor weight, dose: 1.3 mg/kg/injection, schedule: Q01DX011 (ip), vehicle: carboxymethylcellulose (CMC), higher = larger tumour); 92 % of control (endpoint: mean tumor weight, dose: 2.0 mg/kg/injection, schedule: Q01DX011 (ip), vehicle: carboxymethylcellulose (CMC), higher = larger tumour); 22 % of control (endpoint: mean tumor weight, dose: 2.0 mg/kg/injection, schedule: Q01DX011 (ip), vehicle: other, higher = larger tumour); 45 % of control (endpoint: mean tumor weight, dose: 3.0 mg/kg/injection, schedule: Q01DX011 (ip), vehicle: carboxymethylcellulose (CMC), higher = larger tumour); 4 % of control (endpoint: mean tumor weight, dose: 6.0 mg/kg/injection, schedule: Q01DX011 (ip), vehicle: other, higher = larger tumour). Further, the T/C was 96 % of control (endpoint: median survival time, dose: 0.39 mg/kg/injection, schedule: Q01DX009 (ip), vehicle: saline, higher = longer survival); 108 % of control (endpoint: median survival time, dose: 0.78 mg/kg/injection, schedule: Q01DX009 (ip), vehicle: saline, higher = longer survival); 105 % of control (endpoint: median survival time, dose: 1.0 mg/kg/injection, schedule: Q02DX009 (ip), vehicle: Klucel (hydroxypropylcellulose) (HPC), higher = longer survival); 123 % of control (endpoint: median survival time, dose: 1.56 mg/kg/injection, schedule: Q01DX009 (ip), vehicle: saline, higher = longer survival); 108 % of control (endpoint: median survival time, dose: 2.0 mg/kg/injection, schedule: Q02DX009 (ip), vehicle: Klucel (hydroxypropylcellulose) (HPC), higher = longer survival); 112 % of control (endpoint: median survival time, dose: 3.13 mg/kg/injection, schedule: Q01DX009 (ip), vehicle: saline, higher = longer survival).
For the molecule `CC(=O)NCCSC(=O)C(=O)SCCNC(C)=O`, the T/C was 95 % of control (endpoint: mean tumor weight, dose: 25.0 mg/kg/injection, schedule: Q01DX011 (ip), vehicle: saline, higher = larger tumour); 106 % of control (endpoint: mean tumor weight, dose: 50.0 mg/kg/injection, schedule: Q01DX011 (ip), vehicle: saline, higher = larger tumour); 67 % of control (endpoint: mean tumor weight, dose: 100.0 mg/kg/injection, schedule: Q01DX011 (ip), vehicle: saline, higher = larger tumour).
Consider `O=[N+]([O-])c1ccc2c(N=Nc3c(O)ccc4ccccc34)c(O)cc(S(=O)(=O)O)c2c1`, for which the T/C is, setting by setting: (endpoint: mean tumor weight, dose: 180.0 mg/kg/injection, schedule: Q01DX011 (ip), vehicle: saline, higher = larger tumour) 59 % of control; (endpoint: mean tumor weight, dose: 265.0 mg/kg/injection, schedule: Q01DX011 (ip), vehicle: saline, higher = larger tumour) 50 % of control; (endpoint: median survival time, dose: 50.0 mg/kg/injection, schedule: Q01DX009 (ip), vehicle: saline, higher = longer survival) 111 % of control; (endpoint: median survival time, dose: 100.0 mg/kg/injection, schedule: Q01DX009 (ip), vehicle: saline, higher = longer survival) 98 % of control; (endpoint: median survival time, dose: 200.0 mg/kg/injection, schedule: Q01DX009 (ip), vehicle: saline, higher = longer survival) 95 % of control.
`Oc1ccc(O)c(/C=N/NC(=S)NC2CC3CC2C2C=CCC32)c1` (centres undefined): the T/C was 87 % of control (endpoint: median survival time, dose: 25.0 mg/kg/injection, schedule: Q01DX009 (ip), vehicle: olive oil, sesame oil, peanut oil, higher = longer survival) and 86 % of control (endpoint: median survival time, dose: 50.0 mg/kg/injection, schedule: Q01DX009 (ip), vehicle: olive oil, sesame oil, peanut oil, higher = longer survival).
Take `O=[N+]([O-])c1ccc([I+]c2ccccc2)cc1`: the T/C runs as follows: under setting [1], 91 % of control; under setting [2], 95 % of control.
Take `COc1cc2c3c(c1)/C(=N\Nc1ccccc1)CCN3CCC2`: the T/C by setting is: (endpoint: median survival time, dose: 0.78 mg/kg/injection, schedule: Q01DX009 (ip), vehicle: DMSO, higher = longer survival) 112 % of control; (endpoint: median survival time, dose: 3.0 mg/kg/injection, schedule: Q01DX009 (ip), vehicle: DMSO, higher = longer survival) 124 % of control.
For `CCN(CC)CCCC(C)Nc1c2ccc(Cl)cc2nc2cc(Cl)ccc12` (centres undefined), the T/C was 105 % of control under setting [1]; 97 % of control under setting [2]; 105 % of control (endpoint: median survival time, dose: 50.0 mg/kg/injection, schedule: Q01DX009 (ip), vehicle: Klucel (hydroxypropylcellulose) (HPC), higher = longer survival).
As for `O=NN(CCCl)C(=O)NC1CCS(=O)(=O)CC1`, the T/C was 180 % of control (endpoint: median survival time, dose: 5.0 mg/kg/injection, schedule: Q04DX004 (ip), vehicle: Klucel (hydroxypropylcellulose) (HPC), higher = longer survival); 231 % of control (endpoint: median survival time, dose: 7.0 mg/kg/injection, schedule: Q04DX004 (ip), vehicle: Klucel (hydroxypropylcellulose) (HPC), higher = longer survival); 121 % of control and 345 % of control (endpoint: median survival time, dose: 7.0 mg/kg/injection, schedule: Q04DX004 (ip), vehicle: carboxymethylcellulose (CMC), higher = longer survival); 109 % of control (endpoint: median survival time, dose: 8.5 mg/kg/injection, schedule: Q04DX004 (ip), vehicle: carboxymethylcellulose (CMC), higher = longer survival); 218 % of control (endpoint: median survival time, dose: 8.5 mg/kg/injection, schedule: Q07DX002 (ip), vehicle: carboxymethylcellulose (CMC), higher = longer survival); 123 % of control (endpoint: median survival time, dose: 10.0 mg/kg/injection, schedule: Q04DX004 (ip), vehicle: carboxymethylcellulose (CMC), higher = longer survival). For the same molecule, the T/C was 381 % of control (endpoint: median survival time, dose: 11.0 mg/kg/injection, schedule: Q07DX002 (ip), vehicle: carboxymethylcellulose (CMC), higher = longer survival) and 200 % of control (endpoint: median survival time, dose: 14.0 mg/kg/injection, schedule: Q07DX002 (ip), vehicle: carboxymethylcellulose (CMC), higher = longer survival).
